Where a name gives a salt, the structure may show the parent alone.
Legend:
rat TAAR1 = rat TAAR1 (Rattus norvegicus (Rat), UniProt Q923Y9); assay: Radioligand binding assay on rat TAAR1; conditions: for Ki: rat TAAR1, HEK-293 membranes, second value of mouse/rat cell
Protocol: (§1) Construction of TAAR Expression Plasmids and Stably Transfected Cell Lines
(§2) For the construction of expression plasmids the coding sequences of human, rat and mouse TAAR 1 were amplified from genomic DNA essentially as described by Lindemann et al.. The Expand High Fidelity PCR System (Roche Diagnostics) was used with 1.5 mM Mg^2+ and purified PCR products were cloned into pCR2.1-TOPO cloning vector (Invitrogen) following the instructions of the manufacturer. PCR products were subcloned into the pIRESneo2 vector (BD Clontech, Palo Alto, Calif.), and expression vectors were sequence verified before introduction in cell lines.
(§3) HEK293 cells (ATCC # CRL-1573) were cultured essentially as described by Lindemann et al. (2005). For the generation of stably transfected cell lines HEK293 cells were transfected with the pIRESneo2 expression plasmids containing the TAAR coding sequences (described above) with Lipofectamine 2000 (Invitrogen) according to the instructions of the manufacturer, and 24 hrs post transfection the culture medium was supplemented with 1 mg/ml G418 (Sigma, Buchs, Switzerland). After a culture period of about 10 d clones were isolated, expanded and tested for responsiveness to trace amines (all compounds purchased from Sigma) with the cAMP Biotrak Enzyme immunoassay (EIA) System (Amersham) following the non-acetylation EIA procedure provided by the manufacturer.
Radioligand Binding Assay on Rat TAAR1
(§4) Membrane Preparation and Radioligand Binding.
(§5) HEK-293 cells stably expressing rat TAAR1 were maintained at 37° C. and 5% CO2 in DMEM high glucose medium, containing fetal calf serum (10%, heat inactivated for 30 min at 56° C.), penicillin/streptomycin (1%), and 375 μg/ml geneticin (Gibco). Cells were released from culture flasks using trypsin/EDTA, harvested, washed twice with ice-cold PBS (without Ca^2+ and Mg^2+), pelleted at 1'000 rpm for 5 min at 4° C., frozen and stored at −80° C. Frozen pellets were suspended in 20 ml HEPES-NaOH (20 mM, pH 7.4) containing 10 mM EDTA and homogenized with a Polytron (PT 6000, Kinematica) at 14'000 rpm for 20 s. The homogenate was centrifuged at 48'000×g for 30 min at 4° C. Subsequently, the supernatant was removed and discarded, and the pellet resuspended in 20 ml HEPES-NaOH (20 mM, pH 7.4) containing 0.1 mM EDTA using the Polytron (20 s at 14'000 rpm). This procedure was repeated and the final pellet resuspended in HEPES-NaOH containing 0.1 mM EDTA and homogenized using the Polytron. Typically, aliquots of 2 ml membrane portions were stored at −80° C. With each new membrane batch the dissociation constant (Kd) was determined via a saturation curve. […] Nonspecific binding was defined as the amount of ^3[H]—(S)-4-[(ethyl-phenyl-amino)-methyl]-4,5-dihydro-oxazol-2-ylamine bound in the presence of 10 μM unlabeled ligand. All compounds were tested at a broad range of concentrations (10 μM to 10 μM) in duplicates. […] The 96 deep well plates were incubated for 1 hr at 4° C. Incubations were terminated by rapid filtration through Unifilter-96 plates (Packard Instrument Company) and glass filters GF/C (Perkin Elmer) presoaked for 1 hr in polyethylenimine (0.3%) and washed 3 times with 1 ml of cold binding buffer. After addition of 45 μl of Microscint 40 (PerkinElmer) the Unifilter-96 plate was sealed and after 1 hr the ratioactivity counted using a TopCount Microplate Scintillation Counter (Packard Instrument Company).

mouse TAAR1 = mouse TAAR1 (Mus musculus (Mouse), UniProt Q923Y8); assay: Radioligand binding assay on mouse TAAR1; conditions: for Ki: mouse TAAR1, HEK-293 membranes, first value of mouse/rat cell
Protocol: as §1, §2, §3
Radioligand Binding Assay on Mouse TAAR1
as §4
as §5, with “expressing mouse” for “expressing rat”, “(10 pM” for “(10 μM”

rat TAAR1, sequence (Q923Y9 whole entry): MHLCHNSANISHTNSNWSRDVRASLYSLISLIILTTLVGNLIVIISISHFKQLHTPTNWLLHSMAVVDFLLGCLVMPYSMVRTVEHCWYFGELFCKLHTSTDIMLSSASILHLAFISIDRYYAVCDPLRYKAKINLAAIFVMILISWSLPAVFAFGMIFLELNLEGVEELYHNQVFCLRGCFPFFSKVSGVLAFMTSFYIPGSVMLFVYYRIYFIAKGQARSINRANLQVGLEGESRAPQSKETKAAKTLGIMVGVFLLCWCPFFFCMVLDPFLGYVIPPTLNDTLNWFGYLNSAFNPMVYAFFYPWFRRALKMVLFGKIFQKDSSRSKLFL
mouse TAAR1, sequence (Q923Y8 whole entry): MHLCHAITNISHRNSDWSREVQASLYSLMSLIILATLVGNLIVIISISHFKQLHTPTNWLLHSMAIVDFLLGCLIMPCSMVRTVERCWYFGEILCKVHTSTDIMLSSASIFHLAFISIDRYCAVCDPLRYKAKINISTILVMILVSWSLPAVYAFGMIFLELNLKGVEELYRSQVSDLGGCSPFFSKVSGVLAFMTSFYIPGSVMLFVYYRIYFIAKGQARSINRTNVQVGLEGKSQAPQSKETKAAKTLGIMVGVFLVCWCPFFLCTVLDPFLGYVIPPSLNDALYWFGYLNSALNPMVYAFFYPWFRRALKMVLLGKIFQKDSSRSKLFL

Row | Ki (rat TAAR1) [µM] | Ki (mouse TAAR1) [µM] | Kd (rat TAAR1; rat TAAR1 membranes, saturation curve, read-out: dissociation constant (Kd) of radioligand) [nM] | Kd (mouse TAAR1; mouse TAAR1 membranes, saturation curve, read-out: dissociation constant (Kd) of radioligand) [nM] | Structure (SMILES)
1 | 0.0154 | 0.0068 | – | – | O=C(Nc1ccc([C@H]2CNCCO2)cc1)c1cn(-c2cccc(OC(F)(F)F)c2)nn1 [Example 27, (S)—N-(4-(Morpholin-2-yl)phenyl)-1-(3-(trifluoromethoxy)phenyl)-1H-1,2,3-triazole-4-carboxamide hydrochloride]
2 | 0.0006 | 0.0003 | – | – | O=C(Nc1ccc([C@H]2CNCCO2)cc1)c1cnn(-c2cccc(C(F)(F)F)c2)n1 [Example 13, (S)—N-(4-(Morpholin-2-yl)phenyl)-2-(3-(trifluoromethyl)phenyl)-2H-1,2,3-triazole-4-carboxamide hydrochloride]
3 | 0.0174 | 0.0013 | – | – | Cc1ccc(-n2cc(C(=O)Nc3ccc([C@H]4CNCCO4)cc3)nn2)cc1 [Example 17, (S)—N-(4-(Morpholin-2-yl)phenyl)-1-p-tolyl-1H-1,2,3-triazole-4-carboxamide hydrochloride]
4 | 0.0004 | 0.0003 | – | – | O=C(Nc1ccc([C@H]2CNCCO2)cc1)c1cnn(-c2cccc(F)c2)n1 [Example 11, (S)-2-(3-Fluorophenyl)-N-(4-(morpholin-2-yl)phenyl)-2H-1,2,3-triazole-4-carboxamide hydrochloride]
5 | 0.0002 | 0.0004 | – | – | O=C(Nc1ccc([C@H]2CNCCO2)cc1)c1cnn(-c2ccc(Cl)cc2)n1 [Example 6, (S)-2-(4-Chlorophenyl)-N-(4-(morpholin-2-yl)phenyl)-2H-1,2,3-triazole-4-carboxamide hydrochloride]
6 | 0.0016 | 0.0007 | – | – | Cc1ccc(-n2ncc(C(=O)Nc3ccc([C@H]4CNCCO4)cc3)n2)cc1 [Example 18, (S)—N-(4-(Morpholin-2-yl)phenyl)-2-p-tolyl-2H-1,2,3-triazole-4-carboxamide hydrochloride]
7 | – | – | ~2.3 | ~0.7 | CCN(C[C@H]1COC(N)=N1)c1ccccc1 [^3[H]—(S)-4-[(ethyl-phenyl-amino)-methyl]-4,5-dihydro-oxazol-2-ylamine, reference compound]

Row | Structure (SMILES) | Ki (rat TAAR1) [µM] | Ki (mouse TAAR1) [µM] | Kd (rat TAAR1; rat TAAR1 membranes, saturation curve, read-out: dissociation constant (Kd) of radioligand) [nM] | Kd (mouse TAAR1; mouse TAAR1 membranes, saturation curve, read-out: dissociation constant (Kd) of radioligand) [nM]
8 | CCOc1ccc(-n2cc(C(=O)Nc3ccc([C@H]4CNCCO4)cc3)nn2)cc1 [Example 21, (S)-1-(4-Ethoxyphenyl)-N-(4-(morpholin-2-yl)phenyl)-1H-1,2,3-triazole-4-carboxamide hydrochloride] | 0.0293 | 0.0018 | – | –
9 | O=C(Nc1ccc([C@H]2CNCCO2)cc1)c1cnn(-c2ccccc2)n1 [Example 1, (S)—N-(4-(Morpholin-2-yl)phenyl)-2-phenyl-2H-1,2,3-triazole-4-carboxamide hydrochloride] | 0.0013 | 0.0012 | – | –
10 | CCOc1ccc(-n2ncc(C(=O)Nc3ccc([C@H]4CNCCO4)cc3)n2)cc1 [Example 22, (S)-2-(4-Ethoxyphenyl)-N-(4-(morpholin-2-yl)phenyl)-2H-1,2,3-triazole-4-carboxamide hydrochloride] | 0.001 | 0.0008 | – | –
11 | O=C(Nc1ccc([C@H]2CNCCO2)cc1)c1cnn(-c2ccc(OC(F)(F)F)cc2)n1 [Example 15, (S)—N-(4-(Morpholin-2-yl)phenyl)-2-(4-(trifluoromethoxy)phenyl)-2H-1,2,3-triazole-4-carboxamide hydrochloride] | 0.0001 | 0.0002 | – | –

From patent US9416127B2, “Triazole carboxamides and uses thereof” (Hoffmann-La Roche Inc., priority 2012, dated 2016)
